1 compound from patent publication US20140199410A1, “EDIBLE BROWN ALGAE EXTRACT WITH A LOW IODINE CONTENT” (ALGUES ET MER, priority 2011, published 2014) can be followed below.

The target of the test is T1, alpha-amylase (Homo sapiens, UniProt P0DUB6).
T1 sequence (P0DUB6 16-511): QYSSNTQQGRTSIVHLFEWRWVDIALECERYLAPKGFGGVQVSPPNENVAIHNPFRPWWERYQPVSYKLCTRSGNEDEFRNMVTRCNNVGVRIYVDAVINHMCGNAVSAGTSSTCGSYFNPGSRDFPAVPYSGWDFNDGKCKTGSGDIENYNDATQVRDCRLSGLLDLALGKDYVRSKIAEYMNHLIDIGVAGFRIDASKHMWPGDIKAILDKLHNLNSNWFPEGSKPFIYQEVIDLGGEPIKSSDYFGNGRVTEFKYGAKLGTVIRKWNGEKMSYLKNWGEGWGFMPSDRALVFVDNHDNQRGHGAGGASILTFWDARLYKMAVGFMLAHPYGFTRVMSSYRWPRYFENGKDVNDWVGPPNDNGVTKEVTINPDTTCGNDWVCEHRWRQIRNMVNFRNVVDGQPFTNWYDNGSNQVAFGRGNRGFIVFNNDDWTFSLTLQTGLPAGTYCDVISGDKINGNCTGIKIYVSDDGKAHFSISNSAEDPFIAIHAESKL
In words: In vitro inhibition of alpha-amylase (colorimetric, starch to maltose). To be noted: read-out: Inhibitory Activity Alpha-amylase. It is filed as biochemical. The procedure: The methods for determining enzyme activities are conventional colorimetric methods.
The principle is as follows: • starch is incubated with an enzyme (for example human salivary amylase).

Molecules are shown by their SMILES.

For `C[C@H]1O[C@H](O[C@H]2[C@H](O)[C@@H](O)[C@@H](O[C@H]3[C@H](O)[C@@H](O)C(O)O[C@@H]3CO)O[C@@H]2CO)[C@H](O)[C@@H](O)[C@@H]1N[C@H]1C=C(CO)[C@@H](O)[C@H](O)[C@H]1O` (stereo partly shown) [Glucor ™, Acarbose], the inhibition at 1000 µg/mL is 93%.
